The test system of one experiment is AT1 receptor. Kind of experiment: Angiotensin II dose-response curves for changes in carotid arterial pressure (confirmation of AT1 receptor blockade). The class given is in vivo, rat. The settings on record: losartan 2 g/L in drinking water for 2 weeks; normal rats and rats with chronic MI. Here is the method: In order to confirm AT1 receptor blockade with losartan, angiotensin II dose-response curves for changes in carotid arterial pressure were carried out in an additional 14 female Sprague-Dawley rats (260-300 g/each). Eight rats were normal, 4 untreated and 4 treated for 2 weeks with losartan (2 g/L in drinking water). In 6 rats a large MI was produced 3 to 4 weeks prior to study, of which 3 received losartan (2 g/L in drinking water) for 2 weeks and 3 were untreated.

Another experiment has as its system normal rats. The experiment can be described thus: Body, organ and cardiac weights in normal rats after AT1 blockade and GH. The experiment is classed as in vivo, rat. The settings on record: mean ± SD, n=8. Here is the method:
Normal Rats: Normal female Sprague Dawley rats (240-260 g each) were randomized to one of the following four groups: rats receiving placebo for 6 weeks (Control group, n=8); rats treated with placebo for 6 weeks with concomitant rhGH (2 mg/kg bid) for the final 2 weeks (GH group, n=8); rats treated with relatively low-dose losartan (L) (20 mg/kg/day in drinking water) for 6 weeks with concomitant rhGH (2 mg/kg/bid, SC) during the final 2 weeks (LowL+GH, n=8); and rats treated with high dose L (2 g/L in drinking water) for 6 weeks with concomitant rhGH (2 mg/kg/bid, SC) during the final 2 weeks (HighL+GH, n=8). In these 32 animals, the responses of body weight (BW) and the weights of the heart and other selected organs were then examined.
After the hemodynamic measurements, the rats were euthanized and wet weights of heart and other selected organs, including liver, spleen, and kidney, were measured. Cardiac fixation was then performed as described by R. L. Duerr (1996) supra. In brief, polyethylene catheters were introduced into the LV apex and the descending aorta. The LV chamber was filled from a reservoir and maintained at 10 mmHg. After washout of blood from the coronary arteries with heparinized saline, the myocardium was perfused retrogradely from the aorta with 10% buffered formalin at a constant pressure of 60 mmHg for 20 minutes. The heart was then excised and immersed in 10% formalin for 24 hours. Subsequently, the atria and adhesions were dissected away and the right ventricle (RV) and LV were separated and weighted, the interventricular septum being included with the LV. The right tibia was dissected and its length from the condyles to the tip of the medial malleolus was measured with a micrometer caliper by the method of Yin et al., Am J Physiol (1982); 243. To compare heart weights among groups, the weights were normalized by tibial length (TL) as well as by body weight (BW).

Consider `CCCCc1nc(Cl)c(CO)n1Cc1ccc(-c2ccccc2-c2nn[nH]n2)cc1` [Losartan, losartan], for which the “shift of angiotensin II-blood pressure dose-response curves” value in the experiment on AT1 receptor is listed as “marked rightward shifts”.
In the case of “GH: recombinant human growth hormone; placebo 6 weeks with rhGH 2 mg/kg bid for the final 2 weeks”, in the experiment with normal rats (6 weeks, rhGH final 2 weeks), the “BW (body weight)” value is recorded as 319.9 ± 15.9 g, the Kidney weight came out at 2.30 ± 0.19 g, the Liver weight is 13.69 ± 0.94 g and the Spleen weight is 1.21 ± 0.10 g. In the experiment with normal rats (6 weeks, rhGH final 2 weeks), the “TL (tibia length)” value amounted to 4.05 ± 0.08 cm. In addition, in the experiment on normal rats, the HW/BW came to 0.45 ± 0.04%, the LV/BW worked out at 0.33 ± 0.01% and the RV/BW amounted to 0.08 ± 0.01%. In the experiment on normal rats (measured after fixation), the LV wt came out at 1.04 ± 0.06 g and the RV wt amounted to 0.26 ± 0.02 g. Besides, the “HW (heart weight)” value in the experiment on normal rats (measured before fixation) was found to be 1.42 ± 0.12 g.

Source of the values: patent publication US6770624B2, “Treatment of heart failure with growth hormone” (The Regents of the University of California, priority 1997, dated 2004).
